Laboratory results as given in ChEMBL document CHEMBL3885861, “Open TG-GATES”.

Species: Rattus norvegicus
Assay: Open TG-GATES - Regimen: Daily Repeat
Format: toxicity, organism-based, Sprague-Dawley
Design: regimen Daily Repeat, gender Male, age 6 weeks
Conditions: in vivo, po, 3 mg/kg, route gavage, dose level Low; for APTT / Bas / Eos / Fbg / Hb / Ht / Lym / MCH / MCHC / MCV / Mono / Neu / PT / Plat / RBC / Ret / WBC: tissue Blood
[1] = 72 h, tissue Kidney, time 3 day
[2] = 72 h, tissue Plasma, time 3 day

CN(C)CCC(c1ccc(Cl)cc1)c1ccccn1 (stereo unspecified) [CHLORPHENIRAMINE]
TERMINAL_BW (72 h, time 3 day): 233.5 g
APTT (72 h, time 3 day): 18.3 s
Bas (72 h, time 3 day): 0.2%
Eos (72 h, time 3 day): 1%
Fbg (72 h, time 3 day): 299.4 mg/dL
Hb (72 h, time 3 day): 13.3 g/dL
Ht (72 h, time 3 day): 41.5%
Lym (72 h, time 3 day): 80.4%
MCH (72 h, time 3 day): 21 pg
MCHC (72 h, time 3 day): 32.1%
MCV (72 h, time 3 day): 65.5 fL
Mono (72 h, time 3 day): 2.8%
Neu (72 h, time 3 day): 15.2%
PT (72 h, time 3 day): 14.5 s
Plat (72 h, time 3 day): 124 x10_4/uL
RBC (72 h, time 3 day): 634 x10_4/ul
Ret (72 h, time 3 day): 7.1%
WBC (72 h, time 3 day): 89 x10_2/uL
KIDNEY_L [1]: 1 g
KIDNEY_R [1]: 0.9 g
KIDNEY_TOTAL [1]: 1.9 g
LIVER (72 h, tissue Liver, time 3 day): 11.3 g
A/G [2]: 0.8
ALP [2]: 1834.4 IU/L
ALT [2]: 44.4 IU/L
AST [2]: 66.4 IU/L
BUN [2]: 16.2 mg/dL
CRE [2]: 0.2 mg/dL
Ca [2]: 10.6 mg/dL
Cl [2]: 106.2 meq/L
DBIL [2]: 0.018 mg/dL
GLC [2]: 183.6 mg/dL
IP [2]: 8.3 mg/dL
K [2]: 4.3 meq/L
LDH [2]: 94.6 IU/L
Na [2]: 142 meq/L
PL [2]: 162.6 mg/dL
RALB [2]: 2.7 g/dL
TBIL [2]: 0.04 mg/dL
TC [2]: 86.6 mg/dL
TG [2]: 109.8 mg/dL
TP [2]: 5.8 g/dL
gamma-GTP [2]: 1 IU/L
TERMINAL_BW ([…], time 7 day): 265.1 g
TERMINAL_BW ([…], time 14 day): 330.4 g
TERMINAL_BW ([…], time 28 day): 400.2 g
APTT ([…], time 7 day): 19.8 s
Bas ([…], time 7 day): 0%
Eos ([…], time 7 day): 1%
Fbg ([…], time 7 day): 289.8 mg/dL
Hb ([…], time 7 day): 13.7 g/dL
Ht ([…], time 7 day): 41.7%
Lym ([…], time 7 day): 77.2%
MCH ([…], time 7 day): 20.6 pg
MCHC ([…], time 7 day): 32.8%
MCV ([…], time 7 day): 62.8 fL
Mono ([…], time 7 day): 2.6%
Neu ([…], time 7 day): 18.4%
PT ([…], time 7 day): 14 s
Plat ([…], time 7 day): 116 x10_4/uL
RBC ([…], time 7 day): 665 x10_4/ul
Ret ([…], time 7 day): 6%
WBC ([…], time 7 day): 80.2 x10_2/uL
APTT ([…], time 14 day): 18.1 s
Bas ([…], time 14 day): 0.2%
Eos ([…], time 14 day): 1%
Fbg ([…], time 14 day): 299 mg/dL
Hb ([…], time 14 day): 14.4 g/dL
Ht ([…], time 14 day): 43.5%
Lym ([…], time 14 day): 80.2%
MCH ([…], time 14 day): 20.5 pg
MCHC ([…], time 14 day): 33.1%
MCV ([…], time 14 day): 61.9 fL
Mono ([…], time 14 day): 2.8%
Neu ([…], time 14 day): 15%
PT ([…], time 14 day): 14.4 s
Plat ([…], time 14 day): 119.7 x10_4/uL
RBC ([…], time 14 day): 703.8 x10_4/ul
Ret ([…], time 14 day): 4.6%
WBC ([…], time 14 day): 85 x10_2/uL
APTT ([…], time 28 day): 17.7 s
Bas ([…], time 28 day): 0.4%
Eos ([…], time 28 day): 1%
Fbg ([…], time 28 day): 281.2 mg/dL
Hb ([…], time 28 day): 15.6 g/dL
Ht ([…], time 28 day): 46.5%
